Data from patent EP3575310A1, “PHOSPHONATE DERIVATES OF BETULIN COMPOUNDS WITH ANTIVIRAL ACTIVITY, METHOD FOR THEIR PREPARATION AND THEIR APPLICATION” (Uniwersystet Slaski w Katowicach, priority 2018, dated 2019).
Read-outs that look alike come from different tables or passages of the source. Each block holds one compound with its values, some of them ahead of it.

What was measured:
[1] = Cytotoxicity in lymphoid CEMT4 cell cultures, MTT method; type: cell-based; details: human, CEMT4 cells, viability relative to control cultures
Description: Biological testing of compounds is based on the determination of their cytotoxicity, including determination of CC50 and CC90 (Cytotoxity Concentration) and the assessment of the ability to inhibit viral replication in cell cultures and the determination of IC50 and IC90 (Inhibitory Concentration). Cytotoxicity of compounds is assessed in cultures of established lymphoid CEMT4 cell lines using the MTT method. […] The cultures are run in triplicate for every concentration of the tested compounds. HIV replication inhibition by the studied compounds is assessed in cultures of established lymphoid CEMT4 cell lines. Cells are incubated for 24 hours in a medium (RPMI 10% FBS) supplemented with known concentrations of the tested preparations. The cells are then infected with a laboratory isolate of HIV-1 (wild type, S1). The cultures are prepared in triplicate for every concentration of the tested compound. Cultures containing identical number of infected cells grown in a medium not containing the tested substances are used as a positive control (100% viral replication). HIV inhibiting ability is determined after 7 days of growing the culture by determining the viral p24 protein in the medium above the cells. The amount of the protein corresponds to the number of newly synthesized viruses. Inhibition of replication is measured by reducing the amount of p24 protein in cultures enriched in test compounds with respect to the amount of p24 in a culture carried out in a standard medium. The amount of p24 viral protein is determined using an anti-p24 immunoenzymatic test. The results are presented in the form of CC50, IC50 and TI (Therapeutic Index) values. Table 1. Results of determination of anti-HIV activity of synthesized compounds and of the reference compound, AZT

[2] = tested on: HIV-1; details: cited from earlier work
[3] = tested on: HIV-1; details: inhibiting the HIV-1 replication; cited from earlier work
[4] = tested on: HIV-1 (wild type, S1); assay: microbe, parasite or virus in culture; type: cell-based
Description: Biological testing of compounds is based on the determination of their cytotoxicity, including determination of CC50 and CC90 (Cytotoxity Concentration) and the assessment of the ability to inhibit viral replication in cell cultures and the determination of IC50 and IC90 (Inhibitory Concentration). Cytotoxicity of compounds is assessed in cultures of established lymphoid CEMT4 cell lines using the MTT method. […] The cultures are run in triplicate for every concentration of the tested compounds. HIV replication inhibition by the studied compounds is assessed in cultures of established lymphoid CEMT4 cell lines. Cells are incubated for 24 hours in a medium (RPMI 10% FBS) supplemented with known concentrations of the tested preparations. The cells are then infected with a laboratory isolate of HIV-1 (wild type, S1). The cultures are prepared in triplicate for every concentration of the tested compound. […] HIV inhibiting ability is determined after 7 days of growing the culture by determining the viral p24 protein in the medium above the cells. […] Inhibition of replication is measured by reducing the amount of p24 protein in cultures enriched in test compounds with respect to the amount of p24 in a culture carried out in a standard medium. The amount of p24 viral protein is determined using an anti-p24 immunoenzymatic test. […]

[5] = tested on: HIV; details: cited from earlier work
[6] = tested on: HIV-1 infected H9 lymphocytes; details: cited from earlier work

Compound: C=C(CP(=O)(OCC)OCC)[C@@H]1CC[C@]2(C(=O)O)CC[C@]3(C)[C@H](CC[C@@H]4[C@@]5(C)CC[C@H](OC(=O)CC(C)(C)C(=O)O)C(C)(C)[C@@H]5CC[C@]43C)[C@@H]12 [Item 5]
CC50 [1]: > 69000 nM

Compound: C=C(C)[C@@H]1CC[C@]2(C(=O)O)CC[C@]3(C)[C@H](CC[C@@H]4[C@@]5(C)CCC(=O)C(C)(C)[C@@H]5CC[C@]43C)[C@@H]12 [betulonic acid]
activity against HIV-1 [2]: weak activity

Compound: C=C(C)[C@@H]1CC[C@]2(C(=O)O)CC[C@]3(C)[C@H](CC[C@@H]4[C@@]5(C)CC[C@H](O)C(C)(C)[C@@H]5CC[C@]43C)[C@@H]12 [Item 2, (3β)-3-hydroxy-lup-20(29)-en-28-oic acid]
EC50 [3]: 1600 nM
activity against HIV-1 [2]: weak activity

Compound: CC(C)[C@@H]1CC[C@]2(C(=O)O)CC[C@]3(C)C(CCC4[C@@]5(C)CC[C@H](O)C(C)(C)C5CC[C@]43C)C12 (stereo partly drawn) [dihydrobetulinic acid]
EC50 [3]: 900 nM

Compound: CCOP(=O)(C=C(C)[C@@H]1CC[C@]2(C(=O)O)CC[C@]3(C)[C@H](CC[C@@H]4[C@@]5(C)CC[C@H](OC(=O)CC(C)(C)CC(=O)O)C(C)(C)[C@@H]5CC[C@]43C)[C@@H]12)OCC [Item 11]
CC50 [1]: > 68000 nM

Compound: C=C(C)[C@@H]1CC[C@]2(CO)CC[C@]3(C)[C@H](CC[C@@H]4[C@@]5(C)CC[C@H](O)C(C)(C)[C@@H]5CC[C@]43C)[C@@H]12 [Item 1]
IC50 [4]: NO

Compound: C=C(CP(=O)(OCC)OCC)[C@@H]1CC[C@]2(C(=O)O)CC[C@]3(C)[C@H](CC[C@@H]4[C@@]5(C)CC[C@H](OC(=O)CCC(C)(C)C(=O)O)C(C)(C)[C@@H]5CC[C@]43C)[C@@H]12 [Item 6]
CC50 [1]: > 68000 nM

Compound: C=C(C)[C@@H]1CC[C@]2(COC(=O)C(C)(C)CC(=O)O)CC[C@]3(C)[C@H](CC[C@@H]4[C@@]5(C)CC[C@H](OC(=O)CC(C)(C)C(=O)O)C(C)(C)[C@@H]5CC[C@]43C)[C@@H]12 [3-O-(3',3'-dimethylsuccinyl)-28-O-(2",2"-dimethylsuccinyl)betulin]
EC50 [5]: 0.87 nM

Compound: C=C(C)[C@@H]1CC[C@]2(CO)CC[C@]3(C)[C@H](CC[C@@H]4[C@@]5(C)CC[C@H](O)C(C)(C)[C@@H]5CC[C@]43C)[C@@H]12 [Item 1, lup-20(29)-ene-3β,28-diol]
activity against HIV-1 [2]: weak activity

Compound: C=C(CP(=O)(OCC)OCC)[C@@H]1CC[C@]2(C(=O)O)CC[C@]3(C)[C@H](CC[C@@H]4[C@@]5(C)CC[C@H](OC(=O)CC(C)(C)CC(=O)O)C(C)(C)[C@@H]5CC[C@]43C)[C@@H]12 [Item 7]
CC50 [1]: > 68000 nM

Compound: Cc1cn([C@H]2C[C@H](N=[N+]=[N-])[C@@H](CO)O2)c(=O)[nH]c1=O [Item 12]
CC50 [1]: > 280000 nM

IC50 ([4]; Human immunodeficiency virus 1, CEM-T4): 30 nM
Compound: C=C(C)[C@@H]1CC[C@]2(C(=O)O)CC[C@]3(C)[C@H](CC[C@@H]4[C@@]5(C)CC[C@H](OC(=O)CC(C)(C)C(=O)O)C(C)(C)[C@@H]5CC[C@]43C)[C@@H]12 [Item 3]

Compound: C=C(C)[C@@H]1CC[C@]2(C(=O)O)CC[C@]3(C)[C@H](CC[C@@H]4[C@@]5(C)CC[C@H](O)C(C)(C)[C@@H]5CC[C@]43C)[C@@H]12 [Item 2]
CC50 [1]: 5000 nM

Compound: CCOP(=O)(C=C(C)[C@@H]1CC[C@]2(C(=O)O)CC[C@]3(C)[C@H](CC[C@@H]4[C@@]5(C)CC[C@H](OC(=O)CCC(C)(C)C(=O)O)C(C)(C)[C@@H]5CC[C@]43C)[C@@H]12)OCC [Item 10]
CC50 [1]: > 68000 nM

Compound: C=C(C)[C@@H]1CC[C@]2(COC(=O)CC(C)(C)CC(=O)O)CC[C@]3(C)[C@H](CC[C@@H]4[C@@]5(C)CC[C@H](OC(=O)CC(C)(C)CC(=O)O)C(C)(C)[C@@H]5CC[C@]43C)[C@@H]12 [3,28-di-O-(3',3'-dimethylglutaryl)betulin]
EC50 [5]: 0.66 nM

Compound: 3-O-(3,3'-dimethylsuccinyl)betulinic acid [Item 3]
EC50 [6]: 3.5 nM

Compound: CCOP(=O)(C=C(C)[C@@H]1CC[C@]2(C(=O)O)CC[C@]3(C)[C@H](CC[C@@H]4[C@@]5(C)CC[C@H](OC(=O)CC(C)(C)C(=O)O)C(C)(C)[C@@H]5CC[C@]43C)[C@@H]12)OCC [Item 9]
CC50 [1]: > 69000 nM
